Measured values taken from patent US20130217634A1, “PEPTIDES ABLE TO INTERFERE WITH THE INHIBITING ACTIVITY OF MDM2/MDM4 HETERODIMER TOWARDS P53 AND USE THEREOF FOR CANCER TREATMENT” (UNIVERSITA' DEGLI STUDI DI PERUGIA, priority 2012, published 2013).
*: point of attachment. FITC = O=C1OC2(c3ccc(O)cc3Oc3cc(O)ccc32)c2ccc(NC(=S)*)cc21; Ahx = NCCCCCC(=O)O

Columns and labels:
[1] = biological target: T1, recombinant GST-MDM2 (Homo sapiens, UniProt Q00987); assay: In vitro ubiquitination assay of p53 performed by recombinant GST-MDM2; type: biochemical
T1 construct: GST (N)
From the text: (§1) Further experiments have been performed to define the role of peptide 3 composition in its molecular and biological activity. […] Supporting these new experimental data about the importance of Isoleucine 489 and Phenylalanine 488, molecular dynamic simulations have shown that these residues engage in specific hydrophobic and aromatic interactions with MDM2 (FIG. 11). In particular, Isoleucine 489 is harbored in a hydrophobic cleft composed of Alanine 434, Isoleucine 435 and Leucine 458 of MDM2 protein. Likewise, Phenylalanine 488 forms aromatic interactions with a Histidine residue (HID-457) of MDM2 protein.

[2] = biological target: T2, MDM4/MDM2 complex (Homo sapiens, UniProt O15151+Q00987); assay: Immunoprecipitation / western blot of MDM4/MDM2 complex after peptide transfection in HCT116 cells; type: cell-based; details: HCT116 wild type and p53−/−
T2 construct: immunoprecipitation of MDM4 has been carried out on cell lysates; endogenous in cells; host or cells: HCT116 wt and HCT116 p53-/- colon carcinoma cells
From the text: Transient transfection of peptides has been carried out in HCT116 wt and p53−/− colon carcinoma cell lines and the immunoprecipitation of MDM4 has been carried out on cell lysates in order to detect the presence of MDM2 within the immunocomplex, by western blot analysis.
Transient transfection of peptides has been carried out in HCT116 wt and p53−/− colon carcinoma cell lines and the immunoprecipitation of MDM4 has been performed on cell lysates in order to detect the presence of MDM2 within the immunocomplex by western blot analysis.
Cells have been lysed using Saito lysis modified reagent (50 mM Tris-HCl, pH 7.4, 0.15 M NaCl, 0.5% Triton-X100, 5 mM EDTA). […]
(§2) It has been investigated whether peptides were able to enter the cell simply by addition thereof at given concentration (5 μM) to cell culture medium and analyzing for the presence thereof by confocal and fluorescence microscopy, each peptide being labeled with green fluorophore (FAM). It has been observed that peptides were detected in cells only after transfection by liposomes. Successively, the ability of peptides to disrupt the binding by MDM4 or MDM2 immunoprecipitation after peptide transfection in HCT116 cancer cell line, and detection of presence of corresponding partner in immunocomplex by western blot assay have been evaluated. […]

[3] = biological target: T3, p53/MDM4 binding (Homo sapiens, UniProt O15151); assay: Immunoprecipitation / western blot of p53 binding to MDM4 after peptide transfection in HCT116 cells; type: cell-based
T3 construct: MDM4 or MDM2 immunoprecipitation after peptide transfection in HCT116 cancer cell line; endogenous in cells; host or cells: HCT116 wt (p53+/+) colon carcinoma cells
Method: Cells have been lysed using Saito lysis modified reagent (50 mM Tris-HCl, pH 7.4, 0.15 M NaCl, 0.5% Triton-X100, 5 mM EDTA). For p53 immunoprecipitation and BCL2 and MDM4 analysis EBC modified solution has been used (50 mM Tris-HCl, pH 7.4, 0.12 M NaCl, 0.4% NP-40, 1 mM EDTA, 1 Mm β-mercaptoethanol).
400 μg of total protein extract has been incubated with protein G (Invitrogen) for 2 hours under stirring at 4° C. in order not specific binding of proteins with said substrate can occur. Afterwards the cellular extract has been centrifuged, not specific complexes removed with precipitate and supernatant has been incubated for 16 hours with specific antibody. Successively, protein G has been added and incubated for 2 hour at 4° C. […]
as §2

[4] = tested on: HCT116 p53−/− cells; assay: Cell death by cytofluorimetric analysis (Propidium Iodide) of cells transfected with FITC tagged peptides; type: cell-based; details: HCT116 p53−/− compared with wt
Method: (§3) Cytofluorimetric analysis was carried out on HCT116 wt and p53−/− cells transfected with FITC tagged peptides and stained with Propidium Iodide (PI). Percentage of dead cells was evaluated specifically among the transfected cells (green population).
(§4) Cytofluorimetric analysis was performed on HCT116 wt and p53−/− cells transfected with FITC tagged peptides and stained with Propidium Iodide (PI). Percentage of dead cells was evaluated specifically among the transfected cells (green population).
(§5) It has been investigated whether peptides were able to enter the cell simply by addition thereof at given concentration (5 μM) to cell culture medium and analyzing for the presence thereof by confocal and fluorescence microscopy, each peptide being labeled with green fluorophore (FAM). It has been observed that peptides were detected in cells only after transfection by liposomes. Successively, the ability of peptides to disrupt the binding by MDM4 or MDM2 immunoprecipitation after peptide transfection in HCT116 cancer cell line, and detection of presence of corresponding partner in immunocomplex by western blot assay have been evaluated. Two HCT116 wild type and HCT116 p53−/− syngeneic cell lines have been used in order to understand also observed effect dependence on the presence of p53.

[5] = tested on: HCT116 wt cells; assay: as above; type: cell-based; details: for induction of apoptotic response / cellular apoptosis: HCT116 cells transfected with peptide
Method: as §3, §4, §5

[6] = tested on: HCT116 wt and p53−/− cells; assay: TUNEL assay of apoptosis in cells transfected with FITC tagged peptides; type: cell-based; details: among transfected (green) cells
Method: In order to specifically detect apoptotic cells, TUNEL assay was carried out in HCT116 wt and p53−/− cells transfected with FITC tagged peptides. Percentage of apoptotic cells was evaluated specifically among the transfected cells (green population).
as §1

T1 sequence (Q00987 whole entry): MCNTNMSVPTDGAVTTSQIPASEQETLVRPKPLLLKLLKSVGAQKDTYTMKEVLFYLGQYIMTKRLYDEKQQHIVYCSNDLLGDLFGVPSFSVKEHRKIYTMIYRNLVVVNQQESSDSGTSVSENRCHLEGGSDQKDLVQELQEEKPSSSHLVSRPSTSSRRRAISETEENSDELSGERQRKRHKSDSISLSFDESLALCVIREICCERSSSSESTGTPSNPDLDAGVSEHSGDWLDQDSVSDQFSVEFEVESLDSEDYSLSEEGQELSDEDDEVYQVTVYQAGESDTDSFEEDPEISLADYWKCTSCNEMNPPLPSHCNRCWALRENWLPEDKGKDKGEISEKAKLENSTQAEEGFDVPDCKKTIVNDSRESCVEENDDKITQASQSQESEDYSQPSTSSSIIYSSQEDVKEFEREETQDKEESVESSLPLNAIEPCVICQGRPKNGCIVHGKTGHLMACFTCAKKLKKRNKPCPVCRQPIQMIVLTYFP
T3 sequence (O15151 whole entry): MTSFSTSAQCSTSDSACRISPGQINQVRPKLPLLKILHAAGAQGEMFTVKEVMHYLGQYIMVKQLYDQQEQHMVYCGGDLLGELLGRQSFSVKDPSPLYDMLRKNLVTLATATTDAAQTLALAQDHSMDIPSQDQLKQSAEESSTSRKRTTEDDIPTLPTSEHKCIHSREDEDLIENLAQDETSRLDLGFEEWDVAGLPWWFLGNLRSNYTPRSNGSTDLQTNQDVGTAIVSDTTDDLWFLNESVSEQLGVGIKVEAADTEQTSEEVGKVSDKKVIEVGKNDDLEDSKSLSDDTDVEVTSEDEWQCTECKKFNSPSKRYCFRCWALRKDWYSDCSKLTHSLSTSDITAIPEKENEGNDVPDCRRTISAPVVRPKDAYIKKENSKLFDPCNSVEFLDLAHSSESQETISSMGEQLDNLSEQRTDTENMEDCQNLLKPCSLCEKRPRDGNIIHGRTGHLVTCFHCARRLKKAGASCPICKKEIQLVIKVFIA
T3 sequence (P04637 whole entry partner): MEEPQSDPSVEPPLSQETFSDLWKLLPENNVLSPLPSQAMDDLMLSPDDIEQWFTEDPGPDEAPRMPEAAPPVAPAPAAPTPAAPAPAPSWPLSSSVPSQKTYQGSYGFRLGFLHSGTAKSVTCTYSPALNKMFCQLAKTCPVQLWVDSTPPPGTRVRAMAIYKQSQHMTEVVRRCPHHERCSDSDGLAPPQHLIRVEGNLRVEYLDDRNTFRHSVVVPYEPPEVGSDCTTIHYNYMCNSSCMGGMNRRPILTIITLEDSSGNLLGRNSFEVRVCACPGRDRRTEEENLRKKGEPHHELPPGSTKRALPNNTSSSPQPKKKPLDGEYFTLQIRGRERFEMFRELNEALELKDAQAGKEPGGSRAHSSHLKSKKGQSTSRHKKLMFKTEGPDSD
T2 sequence (O15151 whole entry): as the sequence (O15151 whole entry) above
T2 sequence (Q00987 whole entry): as the sequence (Q00987 whole entry) above

inhibition of ubiquitination of p53 [1] | Substance | ability to dissociate MDM4/MDM2 complex [2] | effect on binding of p53 to MDM4 [3] | induced death in p53 lacking versus p53 harboring cells [4] | induction of apoptotic response / cellular apoptosis [5] | induction of apoptosis (TUNEL) [6] | cell death response in comparison to the control Scramble peptide ([5]; HCT116 p53+/+ cells)
ineffective | AIKIFVKVLEIQ (peptide composed with the same aminoacids of SEQ ID NO3 but arranged in different order) [Peptide SC3B] | – | – | – | – | – | –
completely ineffective | KEIQLVIKVAEA (MDM4 sequence of the interaction domain between MDM4 and MDM2 from aa 479 to aa 490 of MDM4 in which FI in positions 10 and 11 of said sequence has been substituted with AE) [Peptide 3D, reference compound] | – | – | – | – | completely ineffective | –
ineffective | VQEAFKLIKIVI (peptide composed with the same aminoacids of SEQ ID NO3 but arranged in different order) [Peptide SC3A] | – | – | – | – | – | –
– | {FITC-Ahx}-ESSLPLNAIEPS-NH2 [Peptide 1] | suitable to dissociate said two proteins | able to preserve the binding of p53 to MDM4 | – | induce a significant apoptotic response | – | significantly higher in comparison to the control Scramble peptide

Substance | inhibition of ubiquitination of p53 [1] | ability to dissociate MDM4/MDM2 complex [2] | effect on binding of p53 to MDM4 [3] | induced death in p53 lacking versus p53 harboring cells [4] | induction of apoptotic response / cellular apoptosis [5] | induction of apoptosis (TUNEL) [6] | cell death response in comparison to the control Scramble peptide ([5]; HCT116 p53+/+ cells)
FITC-Ahx-KEIQLVIKVFIA-CONH2 (HELM PEPTIDE1{[O=C1OC2(c3ccc(O)cc3Oc3cc(O)ccc32)c2ccc(NC(=S)[*:2])cc21].[O=C(CCCCCN[*:1])[*:2]].K.E.I.Q.L.V.I.K.V.F.I.A.[am]}$$$$V2.0; SMILES CC[C@H](C)[C@H](NC(=O)[C@H](Cc1ccccc1)NC(=O)[C@@H](NC(=O)[C@H](CCCCN)NC(=O)[C@@H](NC(=O)[C@@H](NC(=O)[C@H](CC(C)C)NC(=O)[C@H](CCC(N)=O)NC(=O)[C@@H](NC(=O)[C@H](CCC(=O)O)NC(=O)[C@H](CCCCN)NC(=O)CCCCCNC(=S)Nc1ccc2c(c1)C(=O)OC21c2ccc(O)cc2Oc2cc(O)ccc21)[C@@H](C)CC)C(C)C)[C@@H](C)CC)C(C)C)C(=O)N[C@@H](C)C(N)=O) [Peptide 3, FITC-Ahx tagged, C-terminal amide] | inhibit the ubiquitinatin activity of MDM2 towards p53 | highly effective in dissociating said two molecules | does not dissociate p53 from MDM4 | meaningfully lower in p53 lacking than harboring cells | highly effective in inducing cellular apoptosis | induce apoptosis | –
